One series relates to P. falciparum. Conditions: IBSM, cited from earlier work.
The next series relates to P. falciparum 3D7. The series is described as follows: Induced blood-stage malaria (IBSM) volunteer infection study: parasitemia by 18S rRNA qPCR. Format: in vivo, Plasmodium falciparum. The text has this:
A single cohort of eight subjects was inoculated intravenously with P. falciparum 3D7-infected human erythrocytes (approximately 1,800 viable parasites) as previously described ([24]). Parasite growth was monitored by collecting blood samples and performing quantitative PCR (qPCR) targeting the gene encoding P. falciparum 18S rRNA ([25]). […] The dose of cipargamin selected was predicted to be subtherapeutic based on preclinical modeling ([7]) and pharmacokinetic data obtained in previous clinical studies ([8]) and thus chosen to facilitate modeling to estimate the pharmacokinetic/pharmacodynamic relationship. To monitor total parasitemia, blood samples were collected for 18S rRNA qPCR before inoculation, on day 3, twice daily on days 4 to 6, pretreatment on day 7, and 4, 8, 12, 16, 24, 30, and 36 h posttreatment, twice daily from day 9 to day 11, and every 1 to 3 days until day 35. Blood samples for gametocytemia measurements were collected on day 11, every 1 to 3 days between day 15 and day 29, and on day 35. […] Analyses were performed in R version 3.3.0. The PRR and parasite clearance half-life were estimated using the slope of the optimal fit for the log-linear relationship of the parasitemia decay as described previously ([27]).
A general note: In qPCR the cycle at which signal appears reflects the starting amount.

We go through 3 molecules from PMC7849011, “Defining the Antimalarial Activity of Cipargamin in Healthy Volunteers Experimentally Infected with Blood-Stage Plasmodium falciparum” (Antimicrobial Agents and Chemotherapy, 2021).

Like-named read-outs stand apart in the source and are kept apart here.

On to `Cc1cc(Nc2ccc(S(F)(F)(F)(F)F)cc2)n2nc(C(C)(F)F)nc2n1` [DSM265], for which, in the series on P. falciparum (150 mg single dose), the parasite clearance half-life is 9.4 h. As for `OC(c1cc(C(F)(F)F)nc2c(C(F)(F)F)cccc12)C1CCCCN1` (centres unmarked) [mefloquine], the parasite clearance half-life with P. falciparum (10 mg/kg single dose) is 6.2 h. In the case of `Clc1ccc2c(N3CCN(CCCN4CCN(c5ccnc6cc(Cl)ccc56)CC4)CC3)ccnc2c1` [piperaquine, reference compound], the “clearance of asexual parasite regrowth” value in the series with P. falciparum 3D7 (960 mg single oral dose after regrowth post-cipargamin) is listed as “successful in clearing asexual parasite regrowth”. The “second parasite regrowth, number of subjects” value with P. falciparum 3D7 (after 960 mg piperaquine, 8 subjects) was 3 subjects. The parasite clearance half-life with P. falciparum (640 mg single dose) was 5.22 h.
